Assay results: patent US20080015251A1, “Means and method for treating lipotoxicity and other metabolically related phenomena” (Yissum Research Development Co., of The Hebrew University …, priority 2006, published 2008)
Entries after “also recorded” stand apart in the source; their conditions may differ. Marks after values point to notes of the source that are not given here.

Columns and labels:
J774.2 macrophages [1] = assay: Cell viability by propidium iodide exclusion (membrane integrity), flow cytometry; format: cell-based, Murine; settings: for protection against TG-induced lipotoxicity (rate of cell death): AA 0.5 mM, resv 0.2 mM, querc 0.2 mM, lyc 10 AM, carot 10 AM, toc 0.2 mM, LA 0.25 mM, Se 1 AM (FIG. 8A)
Method: Murine J774.2 macrophages were cultured in RPMI medium enriched with 10% fetal calf serum, 1% glutamine, and 1% penicillin-streptomycin. […] Prior to experimental procedures, macrophages were seeded on 6-well plates at a concentration of 50,000 cells/ml.
The physiological range of TG in plasma is up to 1.5 mg/ml. […] Other agents, such as antioxidants or cycloheximide (CH), were added as specified in the relevant figure legends.
Cell membrane integrity was detected as previously described. Briefly, cells were stained with 2 Ag/ml propidium iodide (PI) and measured by flow cytometry, (FACS Calibur, Becton Dickinson, Calif.) at the following fluorescence setting: excitation at 488 nm and emission at 575 nm. Data were collected from 10,000 cells.

J774.2 macrophages [2] = assay: Intracellular ROS, H2DCF-DA fluorescent probe, FACS; format: cell-based, Murine; settings: for ROS production in TG-treated cells: 0.1% LE 24 h, rotenone 40 AM added 5 min before probe, FCCP 15 min (FIG. 2B)
Method: Murine J774.2 macrophages were cultured in RPMI medium enriched with 10% fetal calf serum, 1% glutamine, and 1% penicillin-streptomycin. Cells were maintained in an incubator with temperature (378C) and CO2 (5%) control. Prior to experimental procedures, macrophages were seeded on 6-well plates at a concentration of 50,000 cells/ml.
LE was added to the cell culture at a concentration of 0.1% (w/v) TG (1 mg lipids/ml). The physiological range of TG in plasma is up to 1.5 mg/ml. The cells were incubated with the LE for 12, 24, or 48 h, and then washed twice with phosphate-buffered saline (PBS), and intracellular ROS and cell viability were measured. Other agents, such as antioxidants or cycloheximide (CH), were added as specified in the relevant figure legends.
Intracellular ROS were detected using a H2DCF-DA fluorescent probe. The cells were incubated with 25 AMH2DCF-DA for 30 min at room temperature. The fluorescence was measured in a FACS, with excitation at 488 nm and emission at 530 nm. Data were collected from 10,000 cells.

caspase-3 = assay: Caspase-3 (DEVDase) activity, Ac-DEVD-AMC substrate; format: cell-based, Murine; settings: pretreatment for 24 h with CH (FIG. 6)
Method: For analysis of caspase activity, cells were incubated for 2 h in ice-cold PBS containing 0.5% Triton X-100 and 5 mM dithiothreitol (DTT). The suspension of permeabilized cells was agitated slightly and centrifuged at 14,000 g. The clear supernatant was tested for caspase-3 activity as previously described, using the caspase-3 substrate Ac-DEVD-AMC (Calbiochem, Darmstadt, Germany). Incubation was conducted in 200 Al of reaction mixture containing approximatelyl mg sample protein, in the dark, at 308 C for 4 h (linear phase of the reaction). Caspase-3 activity was expressed as arbitrary fluorescence units (AU) per mg. protein.

rat isolated hepatocytes [3] = assay: Nitrite in culture media (Griess reaction); format: cell-based; settings: for effect on LE inhibition of nitrite levels: 0.1% LE, NAC 3 mmol/L, ascorbate 3 mmol/L, resveratrol 600 μmol/L
Method: Rotenone, S nitroso-N-acetyl-penicillamine (SNAP), buthionine sulfoximine (BSO), anti oxidants, or TNF-α were added to the culture medium in specific experiments. At the end of the experiment, the medium was collected and the cells were harvested for further assays.
Nitrite in culture media was measured by the Griess reaction (21). The values obtained were compared with standards of sodium nitrite dissolved in the cell culture media.

rat isolated hepatocytes [4] = assay: Intracellular ROS, DCF fluorescence, flow cytometer; format: cell-based
Method: Isolated hepatocytes were seeded at 2 […]10^9 cells/L; after 4 h, the culture medium was replaced and cells were incubated for 48 h with 0.01-0.1% LE. Rotenone, S nitroso-N-acetyl-penicillamine (SNAP), buthionine sulfoximine (BSO), anti oxidants, or TNF-α were added to the culture medium in specific experiments. At the end of the experiment, the medium was collected and the cells were harvested for further assays.
Cell membrane integrity (15), TG accumulation (22), and intracellular ROS levels (23, 24) were detected by flow cytometer (FACScalibur BD). Hepatocytes were stained with 2 mg/L DNA-interchelating dye propidium iodide, which is excluded by viable cells; with 1 mg/L Nile red, which accumulates in intracellular lipid droplets; or with […] dichlorodihydrofluorescein diacetate (H2DCF-DA), a probe that has high reactivity to hydrogen peroxide, lipid hydroperoxide, and hydroxyl radicals and low reactivity to superoxide anions (23,24). Fluorescence settings were as follows: excitation at 488 nm and emission at 575 nm for propidium iodide and Nile red and 488 nm and recorded at 530 nm for H2DCF-DA. Data were collected from 10,000 cells.

rat isolated hepatocytes [5] = assay: Reduced glutathione (GSH) by HPLC; format: cell-based
Method: GSH was measured using HPLC (15). […] Detection was made by an electrochemical detector. The results were adjusted to protein levels of the samples.

eNOS [6] = assay: eNOS protein expression, Western blot; format: cell-based, rat; settings: 0.1% LE, NAC 3 mmol/L, 48 h, data not shown
Method: (§1) Cells were scraped and lysed in 750 μΛ of lysis buffer (20 mmol/L Tris, pH 7.8; 0.1% Nonidet P-40; 100 mmol/L NaCl; 50 mmol/L NaF; 10% glycerol, 1 mmol/L sodium orthovanadate). Lysates were centrifuged at 8500×g for 10 min. The supernatant was collected and used for the analysis of eNOS and iNOS.
(§2) Protein concentration was determined by the Bradford method (20) using bovine serum albumin as a standard. Samples were boiled for 5 min with SDS sample buffer; 60 μg of protein per sample was loaded onto a 10% SDS-polyacrylamide gel. Electroblots were blocked in Tris buffer NaCl-Tween (TBST) containing 5% skim milk powder at room temperature. Western blot analysis with a specific antibody against iNOS (Biomol), eNOS, p65, and p-c-Jun antibodies (Santa Cruz Biotechnology) was carried out. The antibodies were diluted in TBST buffer+5% skim milk and left overnight at 4° C. After a TBST washing procedure, the blots were incubated with horseradish-peroxidase labeled anti-rabbit antibody (Pierce) for 1 h at room temperature. The immune reaction was detected by enhanced chemiluminescence. Bands were quantified by scanning densitometry and expressed as arbitrary units.

eNOS [7] = assay: eNOS mRNA level by RT-PCR; format: cell-based, rat; settings: 0.1% LE, NAC 3 mmol/L, 48 h
Method: (§3) Total RNA was prepared using TriReagent. Analyses of mRNA levels of iNOS, eNOS, and gylceraldehyde-3-phosphate dehydrogenase (GAPDH) were performed using RT-PCR. The synthesis of cDNA was carried out using a Reverse-it (ABgene) first-strand synthesis kit. The reaction was conducted at 40-55° C. for 50 min. Finally, the reaction was terminated by incubation at 70° C. for 15 min. PCR amplification was performed in the Biometra T personal cycler instrument (Biometra). Cycles were performed at 94° C. for 30 s followed by 57° C. for 30 s and 72° C. for 30 s. cDNA was incubating with ReddyMix and gene-specific PCR primers, designed using Primer 3 software (Whitehead Institute for Biomedical Research).
(§4) The primers were synthesized by MBC: eNOS, forward primer, 5′-[…]-3′, and reverse primer, 5′-[…]-3′; INOS, forward primer, 5′[…]-3′, and reverse primer, 5′-[…]-3′. As a loading control, RNA was hybridized with a probe of the housekeeping gene, GAPDH, forward primer, 5′-[…]-3′, and reverse primer, 5′-[…]-3′.
(§5) PCR products were electrophoresed on […] gel containing 5 µL ethidium bromide, and the gel image was quantified using Doc-it gel image analysis program (UVP). The number of cycles for all the genes was selected within the linear part of a standard curve.

iNOS [8] = assay: iNOS mRNA level by RT-PCR; format: cell-based, rat; settings: 0.1% LE, NAC 3 mmol/L, 48 h
Method: as §3, §4, §5

iNOS [9] = assay: iNOS protein expression, Western blot; format: cell-based, rat; settings: 0.1% LE, NAC 3 mmol/L, 48 h
Method: as §1, §2

[10] = with or without 0.1% LE and rotenone, 48 h (Table 5)
[11] = with or without 0.1% LE and BSO, 48 h (Table 6)

CC(C)(C)OO [TBH, tert-butyl hydroperoxide]
cell viability after 48 h of exposure (J774.2 macrophages [1]; TBH 12 AM or LE 0.1%, 48 h (FIG. 5)): No loss in viability

C[C@@H]1C[C@@H]([C@H](O)CC2CC(=O)NC(=O)C2)C(=O)[C@@H](C)C1 [CH, cycloheximide]
effect of protein-synthesis inhibition on TG cell-death effect (J774.2 macrophages [1]; CH 0.1 AM then TG, 48 h (FIG. 6B)): does not prevent the cell-death effect of TG | ROS production, CH treatment alone (J774.2 macrophages [2]; CH 0.1 AM (FIG. 6)): decreased ROS production | caspase-3 activity (caspase-3): increased caspase-3 activity

Oc1ccc(C=Cc2cc(O)cc(O)c2)cc1 [resveratrol]
protection against TG-induced lipotoxicity (rate of cell death) (J774.2 macrophages [1]; 0.1% LE): significantly decreased the rate of cell death | effect on LE inhibition of nitrite levels (rat isolated hepatocytes [3]): partially prevented the reduction in nitrite synthesis

Cc1c(C)c2c(c(C)c1O)CC[C@@](C)(CCC[C@H](C)CCC[C@H](C)CCCC(C)C)O2 [atocopherol, a-tocopherol]
protection against TG-induced lipotoxicity (rate of cell death) (J774.2 macrophages [1]; 0.1% LE): did not have any protective effect or even enhanced the rate of cell death

O=c1c(O)c(-c2ccc(O)c(O)c2)oc2cc(O)cc(O)c12 [quercetin]
protection against TG-induced lipotoxicity (rate of cell death) (J774.2 macrophages [1]; 0.1% LE): did not have any protective effect or even enhanced the rate of cell death

C=C(C)[C@H]1Cc2c(ccc3c2O[C@@H]2COc4cc(OC)c(OC)cc4[C@@H]2C3=O)O1 [rotenone]
ROS production in TG-treated cells (J774.2 macrophages [2]): significantly decreased ROS production | Nitrite (rat isolated hepatocytes [3]; [10]): 2.0 ± 0.2^c μmol/106 cells | intracellular ROS levels (rat isolated hepatocytes [4]; incubation with rotenone): increased intracellular ROS levels | ROS (DCF fluorescence) (rat isolated hepatocytes [4]; [10]): 530 ± 44^a AU

N#CC(C#N)=NNc1ccc(OC(F)(F)F)cc1 [FCCP]
ROS production in TG-treated cells (J774.2 macrophages [2]): decreased cellular ROS production but not as effectively as rotenone

TNF-α
Nitrite (rat isolated hepatocytes [3]; TNF-α (100 mU) 3 h, with or without 48 h preincubation with 0.1% LE): 2.1 ± 0.1 μmol/106 cells | Nitrite (rat isolated hepatocytes [3]; TNF-α (100 mU) 6 h, with or without 48 h preincubation with 0.1% LE): 2.1 ± 0.2 μmol/106 cells | Nitrite (rat isolated hepatocytes [3]; TNF-α (100 mU) 9 h, with or without 48 h preincubation with 0.1% LE): 4.3 ± 0.2 μmol/106 cells | Nitrite (rat isolated hepatocytes [3]; TNF-α (100 mU) 12 h, with or without 48 h preincubation with 0.1% LE): 6.5 ± 0.2 μmol/106 cells

CCCCS(=N)(=O)CCC(N)C(=O)O (stereo not drawn) [BSO, buthionine sulfoximine]
nitrite levels (rat isolated hepatocytes [3]; cells treated with BSO): decreased | Nitrite (rat isolated hepatocytes [3]; [11]): 2.3 ± 0.3^c μmol/106 cells | GSH (rat isolated hepatocytes [5]; cells treated with BSO): decreased | GSH (rat isolated hepatocytes [5]; [11]): 2.2 ± 0.4 nmol/mg protein

CC(=O)N[C@@H](CS)C(=O)O [NAC, N-acetyl-L-cysteine]
effect on LE-induced reduction of eNOS protein levels (eNOS [6]): attenuate the LE-induced reduction | effect on LE-induced reduction of eNOS mRNA transcription (eNOS [7]): attenuate the LE-induced reduction | protection against TG-induced cell death (J774.2 macrophages [1]; 0.1% LE, NAC 0.5 mM (FIG. 7B)): protected the cells against TG-induced cell death | TG induced ROS production (J774.2 macrophages [2]; 0.1% LE, NAC 0.5 mM (FIG. 7A)): suppressed | effect on LE inhibition of nitrite levels (rat isolated hepatocytes [3]): increased nitrite levels compared with controls; also recorded: Inhibition of nitrite production was abolished | effect on LE-induced reduction of iNOS mRNA transcription (iNOS [8]): attenuate the LE-induced reduction | effect on LE-induced reduction of iNOS protein levels (iNOS [9]): attenuate the LE-induced reduction

CC(C)=CCC/C(C)=C/C=C/C(C)=C/C=C/C(C)=C/C=C/C=C(C)/C=C/C=C(C)/C=C/C=C(\C)CCC=C(C)C [lycopene]
protection against TG-induced lipotoxicity (rate of cell death) (J774.2 macrophages [1]; 0.1% LE): did not have any protective effect or even enhanced the rate of cell death

CC(=O)N[C@H](C(=O)O)C(C)(C)SN=O [SNAP, S-nitroso-N-acetyl-penicillamine]
effect on ROS levels (rat isolated hepatocytes [4]; SNAP in culture medium 48 h, presence or absence of LE): had no effect on ROS levels | ROS (DCF fluorescence) (rat isolated hepatocytes [4]; with or without 0.1% LE and SNAP, 48 h (Table 4)): SNAP 133 AU

O=C(O)CCCCC1CCSS1 (racemic) [racemic lipoic acid, lipoic acid]
protection against TG-induced lipotoxicity (rate of cell death) (J774.2 macrophages [1]; 0.1% LE): did not have any protective effect or even enhanced the rate of cell death

CC1=C(/C=C/C(C)=C/C=C/C(C)=C/C=C/C=C(C)/C=C/C=C(C)/C=C/C2=C(C)CCCC2(C)C)C(C)(C)CCC1 [h-carotene]
protection against TG-induced lipotoxicity (rate of cell death) (J774.2 macrophages [1]; 0.1% LE): did not have any protective effect or even enhanced the rate of cell death
